Source: US20090054392A1, “NAPHTHYLPYRIMIDINE, NAPHTHYLPYRAZINE AND NAPHTHYLPYRIDAZINE ANALOGS AND THEIR USE AS AGONISTS OF THE WNT-BETA-CATENIN CELLULAR MESSAGING SYSTEM” (Wyeth, priority 2007, published 2009)

System: Dkk1-LRP5-TCF-Luciferase
Assay: Functional Dkk1-LRP5-TCF-Luciferase Assay in U2OS Cells
Details: for fold induction at 2 µM / fold induction at 20 µM / EC50: Homo sapiens, U2OS; for fold induction at 2 µM: read-out: B = TCF ACTIVITY/DMSO CONTROL Fold induction @ 2.0 uM, 2.0 uM compound; for fold induction at 20 µM: read-out: C = TCF ACTIVITY/DMSO CONTROL Fold induction @ 20.0 uM, 20.0 uM compound; for A = MAX FOLD Induction/DMSO CONTROL: maximum fold induction over DMSO control

Row | Compound | fold induction at 2 µM | fold induction at 20 µM | A = MAX FOLD Induction/DMSO CONTROL [fold] | EC50 [µM]
1 | CN(C)[C@H]1CCN(C(=O)[C@@H]2CCCN2c2nccc(-c3ccc4ccccc4c3)n2)C1 [(3S)—N,N-dimethyl-1-{1-[4-(2-naphthyl)pyrimidin-2-yl]-L-prolyl}pyrrolidin-3-amine] | 1.16 | 3.37 | 2.175 | –
2 | CC(=O)N1CCC(N(C)c2nccc(-c3ccc4ccccc4c3)n2)CC1 [N-(1-acetylpiperidin-4-yl)-N-methyl-4-(2-naphthyl)pyrimidin-2-amine] | 1.37 | 0.37 | 1.650 | –
3 | CN(C)[C@H]1CCN(C(=O)[C@H]2CCCN2c2nccc(-c3ccc4ccccc4c3)n2)C1 [(3S)—N,N-dimethyl-1-{1-[4-(2-naphthyl)pyrimidin-2-yl]-D-prolyl}pyrrolidin-3-amine] | 1.05 | 2.43 | 2.115 | –
4 | c1ccc2cc(-c3ccnc(N4CCC(Cn5ccnc5)CC4)n3)ccc2c1 [2-[4-(1H-imidazol-1-ylmethyl)piperidin-1-yl]-4-(2-naphthyl)pyrimidine] | 1.13 | 3.34 | 4.630 | 11.7
5 | Cc1ccc(S(=O)(=O)NC2CCCN(c3nccc(-c4ccc5ccccc5c4)n3)CC2)cc1 (centres unmarked) [4-methyl-N-{1-[4-(2-naphthyl)pyrimidin-2-yl]azepan-4-yl}benzenesulfonamide] | 1.49 | 2.26 | 0.780 | –
6 | CC(C)(C)NCC1CCN(c2nccc(-c3ccc4ccccc4c3)n2)C1 (centres unmarked) [2-methyl-N-({1-[4-(2-naphthyl)pyrimidin-2-yl]pyrrolidin-3-yl}methyl)propan-2-amine] | 1.99 | 0.018 | 3.106 | 1.37
7 | CC(C)(C)OC(=O)N1CCC(CNc2nccc(-c3ccc4ccccc4c3)n2)CC1 [tert-butyl 4-({[4-(2-naphthyl)pyrimidin-2-yl]amino}methyl)piperidine-1-carboxylate] | 0.93 | 1.18 | – | –
8 | NCC1CN(c2nccc(-c3ccc4ccccc4c3)n2)C1 [1-{1-[4-(2-naphthyl)pyrimidin-2-yl]azetidin-3-yl}methanamine] | 2.56 | 0.71 | 3.080 | 22.9
9 | O[C@@H]1CCN([C@H]2CCN(c3nccc(-c4ccc5ccccc5c4)n3)C2)C1 [(3R,3′S)-1′-[4-(2-naphthyl)pyrimidin-2-yl]-1,3′-bipyrrolidin-3-ol] | 2.1 | – | – | –
10 | NC(=O)N1CC[C@H](Nc2nccc(-c3ccc4ccccc4c3)n2)C1 [(3S)-3-{[4-(2-naphthyl)pyrimidin-2-yl]amino}pyrrolidine-1-carboxamide] | 2.05 | 2.94 | 2.750 | 1.52
11 | CN(C)S(=O)(=O)N[C@H]1CCN(c2nccc(-c3ccc4ccccc4c3)n2)C1 [N,N-dimethyl-N′-{(3S)-1-[4-(2-naphthyl)pyrimidin-2-yl]pyrrolidin-3-yl}sulfamide] | 1.87 | – | – | –
12 | c1ccc2cc(-c3ccnc(N4CCC(CN5CCCCCC5)CC4)n3)ccc2c1 [1-({1-[4-(2-naphthyl)pyrimidin-2-yl]piperidin-4-yl}methyl)azepane] | 1.45 | – | – | –
13 | O=C(N[C@H]1CCN(c2nccc(-c3ccc4ccccc4c3)n2)C1)c1ccccc1 [N-{(3S)-1-[4-(2-naphthyl)pyrimidin-2-yl]pyrrolidin-3-yl}benzamide] | 1.13 | 0.64 | – | –
14 | c1ccc2cc(-c3ccnc(N4CCCC4)n3)ccc2c1 [4-(2-naphthyl)-2-pyrrolidin-1-ylpyrimidine] | 1.97 | – | – | –
15 | CN1CCN([C@@H]2CCN(c3nccc(-c4ccc5ccccc5c4)n3)C2)CC1 [2-[(3R)-3-(4-methylpiperazin-1-yl)pyrrolidin-1-yl]-4-(2-naphthyl)pyrimidine] | 3.67 | 0.01 | 1.020 | –
16 | O=C(N1CC(CNc2nccc(-c3ccc4ccccc4c3)n2)C1)C(F)(F)F [4-(2-naphthyl)-N-{[1-(trifluoroacetyl)azetidin-3-yl]methyl}pyrimidin-2-amine] | 1.5 | – | – | –
17 | CN(C)C(=O)NCC1CN(c2nccc(-c3ccc4ccccc4c3)n2)C1 [N,N-dimethyl-N′-({1-[4-(2-naphthyl)pyrimidin-2-yl]azetidin-3-yl}methyl)urea] | 0.99 | 1.43 | – | –
18 | O=C(c1ccccc1)N1CCC(CNc2nccc(-c3ccc4ccccc4c3)n2)CC1 [N-[(1-benzoylpiperidin-4-yl)methyl]-4-(2-naphthyl)pyrimidin-2-amine] | 1.44 | 0.627 | – | –
19 | c1ccc2cc(-c3ccnc(N4CC[C@@H](CN5CCCCC5)C4)n3)ccc2c1 [4-(2-naphthyl)-2-[(3S)-3-(piperidin-1-ylmethyl)pyrrolidin-1-yl]pyrimidine] | 1.34 | 1.06 | – | –
20 | CCN(CC)C(=O)NCCC1CCN(c2nccc(-c3ccc4ccccc4c3)n2)CC1 [N,N-diethyl-N′-(2-{1-[4-(2-naphthyl)pyrimidin-2-yl]piperidin-4-yl}ethyl)urea] | 1.13 | 0.33 | – | –
21 | CN(C)C(=O)N1CC[C@@H](Nc2nccc(-c3ccc4ccccc4c3)n2)C1 [(3R)—N,N-dimethyl-3-{[4-(2-naphthyl)pyrimidin-2-yl]amino}pyrrolidine-1-carboxamide] | – | 1.33 | – | –
22 | CN(C)C(=O)N[C@H]1CC[C@H](Nc2nccc(-c3ccc4ccccc4c3)n2)CC1 [N,N-dimethyl-N′-(trans-4-{[4-(2-naphthyl)pyrimidin-2-yl]amino}cyclohexyl)urea] | 2.78 | 1.61 | 2.270 | –
23 | O=C(c1ccccc1)N1CCCN(c2nccc(-c3ccc4ccccc4c3)n2)CC1 [1-benzoyl-4-[4-(2-naphthyl)pyrimidin-2-yl]-1,4-diazepane] | 1.06 | 0.35 | – | –
24 | N[C@@H]1CCN([C@@H]2CCN(c3nccc(-c4ccc5ccccc5c4)n3)C2)C1 [(3R,3′R)-1′-[4-(2-naphthyl)pyrimidin-2-yl]-1,3′-bipyrrolidin-3-amine] | 1.39 | – | – | –
25 | CC(=O)N[C@@H]1CCN(c2nccc(-c3ccc4ccccc4c3)n2)C1 [N-{(3R)-1-[4-(2-naphthyl)pyrimidin-2-yl]pyrrolidin-3-yl}acetamide] | 1.62 | 0.2 | 1.610 | –
26 | COC(=O)C(Nc1nccc(-c2ccc3ccccc3c2)n1)C1CCN(C(=O)OC(C)(C)C)CC1 (centres unmarked) [tert-butyl 4-(2-methoxy-1-{[4-(2-naphthyl)pyrimidin-2-yl]amino}-2-oxoethyl)piperidine-1-carboxylate] | 1.62 | – | – | –
27 | CN(C)C(=O)N1CCC(N(C)c2nccc(-c3ccc4ccccc4c3)n2)CC1 [N,N-dimethyl-4-{methyl[4-(2-naphthyl)pyrimidin-2-yl]amino}piperidine-1-carboxamide] | 1.37 | 0.68 | – | –
28 | O[C@@H]1CCCN([C@H]2CCN(c3nccc(-c4ccc5ccccc5c4)n3)C2)C1 [(3R)-1-{(3S)-1-[4-(2-naphthyl)pyrimidin-2-yl]pyrrolidin-3-yl}piperidin-3-ol] | – | 2.9 | – | –
